Source: patent US9303016B2, “Derivatives of aza adamantane and uses thereof” (CONNEXIOS LIFE SCIENCES PVT. LTD., priority 2011, dated 2016)

Each compound was assayed against T1, human full length HSD11β1 (Homo sapiens, UniProt P28845) (assay: In Vitro HSD11β1 Inhibition Assay). Conditions: CHO cells transiently expressing human HSD11β1; 200 nM cortisone+500 uM NADPH overnight; cortisone to cortisol by LC/MS-MS; read-out: 11βHSD1 (IC50).
T1 construct: transient expression of human full length HSD11β1 expression vector; host or cells: CHO cells, transient transfection
T1 sequence (P28845 whole entry): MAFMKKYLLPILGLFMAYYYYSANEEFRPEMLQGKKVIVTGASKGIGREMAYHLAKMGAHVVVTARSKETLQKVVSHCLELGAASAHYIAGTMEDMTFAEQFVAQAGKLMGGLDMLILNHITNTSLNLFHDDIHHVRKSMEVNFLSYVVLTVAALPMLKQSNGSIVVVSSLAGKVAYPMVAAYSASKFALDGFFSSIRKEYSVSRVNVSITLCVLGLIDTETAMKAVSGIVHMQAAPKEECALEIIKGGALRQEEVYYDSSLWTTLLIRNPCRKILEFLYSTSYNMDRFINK
Format: cell-based
In short: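 Whole-cell assay in CHO cells transiently transfected with full-length human HSD11β1, re-seeded 24 h after transfection. Cells incubated overnight with 200 nM cortisone plus 500 uM NADPH, with or without inhibitor. Cortisone-to-cortisol conversion measured by LC/MS-MS; IC50 (nM) from an 8-point log concentration-inhibition curve.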

Row | IC50 [µM] | Structure (SMILES)
1 | 0.2 to 0.25 | O=C(CCc1c[nH]c2cc(F)ccc12)N1C2CC3CC(C2)CC1C3 [Example 5, 1-(2-azatricyclo[3.3.1.1^3,7]dec-2-yl)-3-(6-fluoro-1H-indol-3-yl)propan-1-one]
2 | > 0.25 | O=C(CCc1c[nH]c2ccc(F)cc12)N1C2CC3CC(C2)CC1C3 [Example 7, 1-(2-azatricyclo[3.3.1.1^3,7]dec-2-yl)-3-(5-fluoro-1H-indol-3-yl)propan-1-one]
3 | > 0.25 | Cn1cc(C(C)(C)CC(=O)N2C3CC4CC2CC(O)(C4)C3)c2ccccc21 [Example 10, 1-(5-hydroxy-2-azatricyclo[3.3.1.1^3,7]dec-2-yl)-3-methyl-3-(1-methyl-1H-indol-3-yl)butan-1-one]
4 | > 0.25 | O=C(CCc1c[nH]c2ncccc12)N1C2CC3CC1CC(O)(C3)C2 [Example 15, 1-(5-hydroxy-2-azatricyclo[3.3.1.1^3,7]dec-2-yl)-3-(1H-pyrrolo[2,3-b]pyridin-3-yl)propan-1-one]
5 | > 0.25 | O=C(CCn1nnc2ccccc21)N1C2CC3CC1CC(O)(C3)C2 [Example 16, 3-(1H-benzotriazol-1-yl)-1-(5-hydroxy-2-azatricyclo[3.3.1.1^3,7]dec-2-yl)propan-1-one]
6 | > 0.25 | COC12CC3CC(C1)N(C(=O)CC(C)c1c[nH]c4ccccc14)C(C3)C2 (stereo not drawn) [Example 34, 3-(1H-indol-3-yl)-1-(5-methoxy-2-azatricyclo[3.3.1.1^3,7]dec-2-yl)butan-1-one]
7 | 0.1 to 0.15 | CC(CC(=O)N1C2CC3CC1CC(OC(F)F)(C3)C2)c1c[nH]c2cccc(Cl)c12 (stereo not drawn) [Example 39, 3-(4-chloro-1H-indol-3-yl)-1-[5-(difluoromethoxy)-2-azatricyclo[3.3.1.1^7]dec-2-yl]butan-1-one]
8 | < 0.1 | CC(CC(=O)N1C2CC3CC1CC(O)(C3)C2)c1c[nH]c2cccc(C3CC3)c12 (stereo not drawn) [Example 41]
9 | > 0.25 | CC(CC(=O)N1C2CC3CC1CC(C(=O)O)(C3)C2)c1c[nH]c2cccc(Cl)c12 (stereo not drawn) [Example 43, 2-[3-(4-chloro-1H-indol-3-yl)butanoyl]-2-azatricyclo[3.3.1.1^3,7]decane-carboxylic acid]
10 | 0.2 to 0.25 | CC(CC(=O)N1C2CC3CC1CC(O)(C3)C2)c1c[nH]c2cccc(Oc3ccc(Cl)cc3)c12 (stereo not drawn) [Example 44, 3-[4-(4-chlorophenoxy)-1H-indol-3-yl]-1-(5-hydroxy-2-azatricyclo[3.3.1.1^3,7]dec-2-yl)butan-1-one]
11 | > 0.25 | CC(CC(=O)N1C2CC3CC1CC(C(=O)Nc1ccc(F)cc1)(C3)C2)c1c[nH]c2cccc(Cl)c12 (stereo not drawn) [Example 45, 2-[3-(4-chloro-1H-indol-3-yl)butanoyl]-N-(4-fluorophenyl)-2-azatricyclo[3.3.1.1^3,7]decane-5-carboxamide]

The next lines start with the compound.

Row | Structure (SMILES) | IC50 [µM]
12 | Cc1cccc2c1c(CCC(=O)N1C3CC4CC(C3)CC1C4)cn2C [Example 3, 1-(2-azatricyclo[3.3.1.1^3,7]dec-2-yl)-3-(1,4-dimethyl-1H-indol-3-yl)propan-1-one] | > 0.25
13 | O=C(CCc1c[nH]c2cccc(F)c12)N1C2CC3CC1CC(O)(C3)C2 [Example 4, 3-(4-fluoro-1H-indol-3-yl)-1-(5-hydroxy-2-azatricyclo[3.3.1.1^3,7]dec-2-yl)propan-1-one] | > 0.25
14 | Cn1cc(CCC(=O)N2C3CC4CC2CC(O)(C4)C3)c2c(F)cccc21 [Example 8, 3-(4-fluoro-1-methyl-1H-indol-3-yl)-1-(5-hydroxy-2-azatricyclo[3.3.1.1^3,7]dec-2-yl)propan-1-one] | > 0.25
15 | O=C(CCc1nc2ccccc2s1)N1C2CC3CC(C2)CC1C3 [Example 11, 1-(2-azatricyclo[3.3.1.1^3,7]dec-2-yl)-3-(1,3-benzothiazol-2-yl)propan-1-one] | > 0.25
16 | O=C(CCc1nc2ccccc2s1)N1C2CC3CC1CC(O)(C3)C2 [Example 12, 3-(1,3-benzothiazol-2-yl)-1-(5-hydroxy-2-azatricyclo[3.3.1.1^3,7]dec-2-yl)propan-1-one] | > 0.25
17 | O=C(CCc1nc2ccccc2s1)N1C2CC3CC1CC(OC(F)F)(C3)C2 [Example 13, 3-(1,3-benzothiazol-2-yl)-1-[5-(difluoromethoxy)-2-azatricyclo[3.3.1.1^3,7]dec-2-yl]propan-1-one] | > 0.25
18 | O=C(CCc1c[nH]c2ncccc12)N1C2CC3CC(C2)CC1C3 [Example 14, 1-(2-azatricyclo[3.3.1.1^3,7]dec-2-yl)-3-(1H-pyrrolo[2,3-b]pyridin-3-yl)propan-1-one] | 0.1 to 0.15
19 | CC(CC(=O)N1C2CC3CC(C2)CC1C3)c1c[nH]c2ccccc12 (stereo not drawn) [Example 17, 1-(2-azatricyclo[3.3.1.1^3,7]dec-2-yl)-3-(1H-indol-3-yl)butan-1-one] | 0.1 to 0.15
20 | CC(CC(=O)N1C2CC3CC(C2)C(O)C1C3)c1c[nH]c2ccccc12 (stereo not drawn) [Example 18, 1-(4-hydroxy-2-azatricyclo[3.3.1.1^3,7]dec-2-yl)-3-(1H-indol-3-yl)butan-1-one] | 0.1 to 0.15
21 | CC(C)C(CC(=O)N1C2CC3CC(C2)C(O)C1C3)c1c[nH]c2ccccc12 (stereo not drawn) [Example 19, 1-(4-hydroxy-2-azatricyclo[3.3.1.1^3,7]dec-2-yl)-3-(1H-indol-3-yl)-4-methylpentan-1-one] | 0.2 to 0.25
22 | CC(CC(=O)N1C2CC3CC1CC(O)(C3)C2)c1c[nH]c2ccccc12 (stereo not drawn) [Example 20, 1-(5-hydroxy-2-azatricyclo[3.3.1.1^3,7]dec-2-yl)-3-(1H-indol-3-yl)butan-1-one] | > 0.25
23 | CC(C)C(CC(=O)N1C2CC3CC1CC(O)(C3)C2)c1c[nH]c2ccccc12 (stereo not drawn) [Example 23, 1-(5-hydroxy-2-azatricyclo[3.3.1.1^3,7]dec-2-yl)-3-(1H-indol-3-yl)-4-methylpentan-1-one] | > 0.25
24 | CC(C)C(CC(=O)N1C2CC3CC1CC(F)(C3)C2)c1c[nH]c2ccccc12 (stereo not drawn) [Example 24, 1-(5-fluoro-2-azatricyclo[3.3.1.1^3,7]dec-2-yl)-3-(1H-indol-3-yl)-4-methylpentan-1-one] | > 0.25
25 | CC(C)C(CC(=O)N1C2CC3CC1CC(O)(C3)C2)c1c[nH]c2cccc(F)c12 (stereo not drawn) [Example 25, 3-(4-fluoro-1H-indol-3-yl)-1-(5-hydroxy-2-azatricyclo[3.3.1.1^3,7]dec-2-yl)-4-methylpentan-1-one] | > 0.25
26 | CC(CC(=O)N1C2CC3CC1CC(O)(C3)C2)c1c[nH]c2cccc(F)c12 (stereo not drawn) [Example 26, 3-(4-fluoro-1H-indol-3-yl)-1-(5-hydroxy-2-azatricyclo[3.3.1.1^3,7]dec-2-yl)butan-1-one] | 0.2 to 0.25
27 | COC12CC3CC(C1)N(C(=O)CC(C)c1c[nH]c4cccc(F)c14)C(C3)C2 (stereo not drawn) [Example 29, 3-(4-fluoro-1H-indol-3-yl)-1-(5-methoxy-2-azatricyclo[3.3.1.1^3,7]dec-2-yl)butan-1-one] | 0.1 to 0.15
28 | CC(CC(=O)N1C2CC3CC1CC(Cl)(C3)C2)c1c[nH]c2cccc(F)c12 (stereo not drawn) [Example 32, 1-(5-chloro-2-azatricyclo[3.3.1.1^3,7]dec-2-yl)-3-(4-fluoro-1H-indol-3-yl)butan-1-one] | 0.15 to 0.2
29 | CC(CC(=O)N1C2CC3CC1CC(OCC1CC1)(C3)C2)c1c[nH]c2cccc(F)c12 (stereo not drawn) [Example 33, 1-[5-(cyclopropylmethoxy)-2-azatricyclo[3.3.1.1^3,7]dec-2-yl]-3-(4-fluoro-1H-indol-3-yl)butan-1-one] | > 0.25
30 | CC(CC(=O)N1C2CC3CC1CC(O)(C3)C2)c1c[nH]c2cccc(Cl)c12 (stereo not drawn) [Example 35, 3-(4-chloro-1H-indol-3-yl)-1-(5-hydroxy-2-azatricyclo[3.3.1.1^3,7]dec-2-yl)butan-1-one] | < 0.1
